Earlier results, collected in patent US20140080864A1, “PHARMACETUICAL COMPOSITION COMPRISING DROTAVERINE” (CHINOIN PRIVATE CO LTD, priority 2011, published 2014).
Counter-ions that a name gives are not always drawn.

Conditions: oral dose, healthy individuals; mean SD

## CCOc1ccc(/C=C2\NCCc3cc(OCC)c(OCC)cc32)cc1OCC [drotaverine hydrochloride, 1-(3,4-diethoxybenzylidene)-6,7-diethoxy-1,2,3,4-tetrahydroisoquinoine]
  absolute bioavailability (mean): 58.2%
